Data on five compounds can be found in patent publication US20210196702A1, “TREATMENT OF HYPERKINETIC MOVEMENT DISORDERS” (Neurocrine Biosciences, Inc., priority 2014, published 2021).

Each structure is given as a SMILES string. Read-outs that look alike come from different tables or passages of the source.

The subject of series [1] is TD subjects. Nature of the series: Tolerability of repeated doses in TD subjects. In kind it is in vivo, human. As to conditions: repeated doses from 12.5 mg to 100 mg per day. As to the method:
Efficacy is related to the concentrations of the active metabolite [+]α-dihydrotetrabenazine. […] Exposures above 60 ng/mL in plasma afford little incremental benefit but increase the risk of adverse events reflecting extension of VMAT2 pharmacology. Exposures below 15 ng/mL are suboptimal across the general TD population.

The test system of series [2] is TD subjects. The experiment in a line: Phase 2 clinical study of NBI-98854: exposure-AIMS (video-rated) analysis. As to conditions: for Mean AIMS reduction - % (week 6 vs baseline): regardless of NBI-98854 dose. In kind it is in vivo, human. From the text: Methods for determining the effectiveness of a therapeutic for treating a hyperkinetic disorder are routinely practiced in the art by a person skilled in the medical and clinical arts. By way of example, a subject with a hyperkinetic disorder may be diagnosed, monitored, and evaluated by the Abnormal Involuntary Movement Scale (AIMS). The AIMS is a structured neurological examination that was developed in 1976 and has been used extensively in movement disorder assessments. It consists of seven distinct ratings of regional involuntary body movements that are scored on a zero to four scale with zero being rated as none and four being rated as severe.
(§1) Observed exposure and Abnormal Involuntary Movement Scale (AIMS) derived from video ratings from a Phase 2 clinical study of (S)-2-amino-3-methyl-butyric acid (2R,3R,11bR)-3-isobutyl-9,10-dimethoxy-1,3,4,6,7,11b-hexahydro-2H-pyrido[2,1-a]isoquinolin-2-yl ester were employed for development of the exposure-response relationship. A total of […] were randomized to placebo (N=41) and (S)-2-amino-3-methyl-butyric acid (2R,3R,11bR)-3-isobutyl-9,10-dimethoxy-1,3,4,6,7,11b-hexahydro-2H-pyrido[2,1-a]isoquinolin-2-yl ester (either 25 mg, 50 mg or 75 mg, N=45). Thirty-eight patients receiving (S)-2-amino-3-methyl-butyric acid (2R,3R,11bR)-3-isobutyl-9,10-dimethoxy-1,3,4,6,7,11b-hexahydro-2H-pyrido[2,1-a]isoquinolin-2-yl ester had PK data available for the metabolite [+]α-dihydrotetrabenazine. […] AIMS derived from video rating was available at baseline and week 6 in each patient. Percent change from baseline at week 6 served as the response metric. [+]α-Dihydrotetrabenazine concentration at week 6 sampled at about the Tmax was available in each patient and this Cmax steady state (ss) was used as the exposure measure.
(§2) The patients who had quantifiable concentrations of [+]α-dihydrotetrabenazine were divided into quartiles based upon the week 6 Cmax ss. The mean Cmax ss and mean AIMS reduction from baseline were calculated for each quartile.

For series [3] the following is noted: cited from earlier work.
The nature of series [4]: Phase 2 clinical study: week 6 plasma concentration (Cmax ss) of [+]α-HTBZ. Particulars: human, NBI-98854 25, 50 or 75 mg, TD patients. Format: in vivo.
Source text: (§3) Plasma concentrations of (+)α-HTBZ, (+)β-HTBZ, and compounds as disclosed herein may be measured by methods as described in Derangula et al, Biomedical Chromatography 2013 27(6): 792-801, Mehvar et al, […] 1987 15(2): 250-55 and generally by tandem mass spectroscopy.
as §1, §2

The nature of series [5]: NBI-98854 multiple-dose cohort: plasma (+)α-HTBZ on day 8. As to conditions: for half-life: read-out: apparent ti (half-life) of plasma concentration decline (converted). Format: in vivo, human. As to the method: as §3
NBI-98854 was administered orally once daily at a dose of 50 mg or 100 mg for 8 days to patients in a multiple-dose cohort (n=13 for 50 mg dosage group; n=4 for 100 mg dosage group). Individual subject plasma concentration data for (+)α-HTBZ was collected at scheduled times post-dose (0 hr, 2 hr, 4 hr, 6 hr, 8 hr, 12 hr, 16 hr, 24 hr, 48 hr, 96 hr, and 120 hr) on day 8 and presented as mean plasma concentration data (linear scale) (see, FIG. 1). On Day 8, median time to Tmax for (+)α-HTBZ was approximately 4.0 hours for both doses.

Another series relates to patients exposed to drug. Particulars: patients exposed to metoclopramide (Rao et al 2010); cited from earlier work.
[6] abbreviates: active metabolite after NBI-98854, TD population.

In the case of `COc1cc2c(cc1OC)[C@H]1C[C@@H](OC(=O)[C@@H](N)C(C)C)[C@H](CC(C)C)CN1CC2` [NBI-98854, (S)-2-amino-3-methyl-butyric acid (2R,3R,11bR)-3-isobutyl-9,10-dimethoxy-1,3,4,6,7,11b-hexahydro-2H-pyrido[2,1-a]isoquinolin-2-yl ester], the Tolerability result in the series on TD subjects [1] is reported as “generally well tolerated”. In addition, the “Mean AIMS reduction - % (week 6 vs baseline)” value is 65% with TD subjects [2] (3rd quartile of [+]α-HTBZ Cmax ss) and 52% with TD subjects [2] (4th quartile of [+]α-HTBZ Cmax ss).

As to `COc1cc2c(cc1OC)C1CC(=O)C(CC(C)C)CN1CC2` (centres unmarked) [tetrabenazine, 3-isobutyl-9,10-dimethoxy-1,3,4,6,7,11b-hexahydro-2H-pyrido[2,1-a]isoquinolin-2-one], the “Systemic exposure to parent drug” value in series [3] (in humans, rapidly metabolized to HTBZ) is listed as “virtually negligible”.

`COc1cc2c(cc1OC)C1CC(O)C(CC(C)C)CN1CC2` (centres unmarked) [HTBZ, 3-isobutyl-9,10-dimethoxy-1,3,4,6,7,11b-hexahydro-2H-pyrido[2,1-a]isoquinolin-2-ol]: the half-life result in series [3] (HTBZ formed from tetrabenazine in humans) was “short”.

Take `COc1cc2c(cc1OC)[C@H]1C[C@@H](O)[C@H](CC(C)C)CN1CC2` [(+)α-HTBZ, (2R, 3R, 11bR)-3-isobutyl-9,10-dimethoxy-1,3,4,6,7,11b-hexahydro-2H-pyrido[2,1-a]isoquinolin-2-ol]: the Cmax in series [4] (1st quartile by week 6 Cmax ss) is around 15 ng/mL; in series [4] (2nd quartile by week 6 Cmax ss), around 29 ng/mL; in series [4] (3rd quartile by week 6 Cmax ss) it was 42 ng/mL; in series [4] (4th quartile by week 6 Cmax ss), 93 ng/mL. Besides, the “Appropriate target concentration in plasma (exposure-response analysis)” value in the series with TD subjects [2] (setting [6]) worked out at 30 ng/mL. Moreover, in the series on TD subjects [2] (setting [6]), the “Plasma exposures affording little incremental benefit but increased risk of adverse events” value is reported as “above 60 ng/mL”. Besides, in the series on TD subjects [2] (setting [6]), the “Plasma exposures that are suboptimal across the general TD population” value is “below 15 ng/mL”. Moreover, the “Plasma concentration maintained above threshold” value in series [5] (NBI-98854 50 mg once daily, over a period of about 8 to about 24 hours) is above 15 ng/mL. The half-life was around 21 h in series [5] (human, plasma, po, NBI-98854 50 mg orally once daily) and around 19 h in series [5] (human, plasma, po, NBI-98854 100 mg orally once daily). Besides, in series [5] (human, plasma, po, NBI-98854 orally once daily, both doses (50 mg and 100 mg), read-out: median time to Tmax), the Tmax is around 4 h.

As to `CCN(CC)CCNC(=O)c1cc(Cl)c(N)cc1OC` [metoclopramide], the “Occurrence of drug-induced TD in patients exposed to drug” value in the series on patients exposed to drug is below 1%.
